Source: PubChem BioAssay (NCI)
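Exposure lasted 48 hours, with cells grown in 96-well plates and compounds tested at five concentrations. TGI is the concentration that stops growth completely.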

Legend:
Assay in all cases: growth of human tumour cells (NCI), 48 h
SNB-75 CNS = system: SNB-75 CNS
SF-268 CNS = system: SF-268 CNS
UO-31 renal = system: UO-31 renal
M19-MEL melanoma = system: M19-MEL melanoma
SF-295 CNS = system: SF-295 CNS
LOX IMVI melanoma = system: LOX IMVI melanoma
SNB-78 CNS = system: SNB-78 CNS
DMS 114 small cell lung = system: DMS 114 small cell lung
SW-620 colon = system: SW-620 colon
HCT-15 colon = system: HCT-15 colon
HOP-92 NSCLC = system: HOP-92 NSCLC
NCI-H226 lung = system: NCI-H226 lung
SK-MEL-28 melanoma = system: SK-MEL-28 melanoma
UACC-62 melanoma = system: UACC-62 melanoma
LXFL 529 NSCLC = system: LXFL 529 NSCLC
SK-MEL-2 melanoma = system: SK-MEL-2 melanoma
RPMI-8226 leukemia = system: RPMI-8226 leukemia
MALME-3M melanoma = system: MALME-3M melanoma
HL-60(TB) leukemia = system: HL-60(TB) leukemia
NCI-H23 lung = system: NCI-H23 lung
KM20L2 colon = system: KM20L2 colon
MOLT-4 leukemia = system: MOLT-4 leukemia
M14 melanoma = system: M14 melanoma
DMS 273 small cell lung = system: DMS 273 small cell lung
SNB-19 CNS = system: SNB-19 CNS
A498 renal = system: A498 renal
CAKI-1 renal = system: CAKI-1 renal
K-562 leukemia = system: K-562 leukemia
ACHN renal = system: ACHN renal
SF-539 CNS = system: SF-539 CNS
OVCAR-8 ovarian = system: OVCAR-8 ovarian
EKVX NSCLC = system: EKVX NSCLC
DLD-1 colon = system: DLD-1 colon
OVCAR-3 ovarian = system: OVCAR-3 ovarian
HT29 colon = system: HT29 colon
SK-MEL-5 melanoma = system: SK-MEL-5 melanoma
HOP-18 NSCLC = system: HOP-18 NSCLC
COLO 205 colon = system: COLO 205 colon
NCI-H522 lung = system: NCI-H522 lung
U251 CNS = system: U251 CNS
SN12C renal = system: SN12C renal
IGROV1 ovarian = system: IGROV1 ovarian
CCRF-CEM leukemia = system: CCRF-CEM leukemia
NCI-H460 lung = system: NCI-H460 lung
TK-10 renal = system: TK-10 renal
RXF-631 renal = system: RXF-631 renal
SK-OV-3 ovarian = system: SK-OV-3 ovarian
KM12 colon = system: KM12 colon
OVCAR-4 ovarian = system: OVCAR-4 ovarian
UACC-257 melanoma = system: UACC-257 melanoma
HOP-62 NSCLC = system: HOP-62 NSCLC
OVCAR-5 ovarian = system: OVCAR-5 ovarian
A549 NSCLC = system: A549 NSCLC
XF 498 CNS = system: XF 498 CNS
786-0 renal = system: 786-0 renal
RXF 393 renal = system: RXF 393 renal
HCT-116 colon = system: HCT-116 colon
HCC-2998 colon = system: HCC-2998 colon

Compound `COc1cc2c(cc1OC)C(Cl)C(c1cc(OC)c(OC)c(OC)c1)=C2Cl` (stereo not given) has a TGI (SNB-75 CNS) of 18.1 µM, a TGI (SF-268 CNS) of 55.7 µM and a TGI (UO-31 renal) of 27.1 µM. It also gave a TGI (M19-MEL melanoma) of 28.7 µM, a TGI (SF-295 CNS) of 29.9 µM and a TGI (LOX IMVI melanoma) of 30.2 µM. For the same compound, the TGI (SNB-78 CNS) was 46.4 µM, the TGI (DMS 114 small cell lung) was 26.2 µM and the TGI (SW-620 colon) was 46.1 µM. The TGI (HCT-15 colon) was 49.4 µM, the TGI (HOP-92 NSCLC) was 27.9 µM and the TGI (NCI-H226 lung) was 41.4 µM. The TGI (SK-MEL-28 melanoma) was 31.9 µM, the TGI (UACC-62 melanoma) was 28.9 µM and the TGI (LXFL 529 NSCLC) was 24.6 µM. It also gave a TGI (SK-MEL-2 melanoma) of 34.1 µM, a TGI (RPMI-8226 leukemia) of 37 µM and a TGI (MALME-3M melanoma) of 30.6 µM. For the same compound, the TGI (HL-60(TB) leukemia) was 44.3 µM, the TGI (NCI-H23 lung) was 51.8 µM and the TGI (KM20L2 colon) was 36.6 µM. It also gave a TGI (MOLT-4 leukemia) of 29.9 µM, a TGI (M14 melanoma) of 35.2 µM and a TGI (DMS 273 small cell lung) of 34.6 µM. For the same compound, the TGI (SNB-19 CNS) was 37.2 µM, the TGI (A498 renal) was 61.1 µM and the TGI (CAKI-1 renal) was 32.5 µM. The TGI (K-562 leukemia) was over 100 µM, the TGI (ACHN renal) was 28.8 µM and the TGI (SF-539 CNS) was 26.7 µM. The TGI (OVCAR-8 ovarian) was 48.7 µM, the TGI (EKVX NSCLC) was 79.4 µM and the TGI (DLD-1 colon) was 51.4 µM. It also gave a TGI (OVCAR-3 ovarian) of 31.9 µM, a TGI (HT29 colon) of 30.3 µM and a TGI (SK-MEL-5 melanoma) of 30.5 µM. It also gave a TGI (HOP-18 NSCLC) of 32.3 µM, a TGI (COLO 205 colon) of 32.9 µM and a TGI (NCI-H522 lung) of 23 µM. The TGI (U251 CNS) was 33 µM, the TGI (SN12C renal) was 36.6 µM and the TGI (IGROV1 ovarian) was 54.7 µM. It also gave a TGI (CCRF-CEM leukemia) of 40.7 µM, a TGI (NCI-H460 lung) of 32.4 µM and a TGI (TK-10 renal) of 62.2 µM. For the same compound, the TGI (RXF-631 renal) was 38.2 µM and the TGI (SK-OV-3 ovarian) was 56.2 µM.
Compound `CCCCCCCCCC(=O)CC(=O)c1c(O)cccc1O` has a TGI (KM12 colon) of over 100 µM, a TGI (SNB-75 CNS) of 99.7 µM and a TGI (SF-268 CNS) of over 100 µM. The TGI (UO-31 renal) was over 100 µM, the TGI (M19-MEL melanoma) was over 100 µM and the TGI (SF-295 CNS) was 98.2 µM. For the same compound, the TGI (LOX IMVI melanoma) was 49.6 µM, the TGI (SNB-78 CNS) was over 100 µM and the TGI (DMS 114 small cell lung) was 89.5 µM. For the same compound, the TGI (SW-620 colon) was 83.2 µM, the TGI (NCI-H226 lung) was 70.2 µM and the TGI (OVCAR-4 ovarian) was over 100 µM. The TGI (SK-MEL-28 melanoma) was over 100 µM, the TGI (UACC-62 melanoma) was over 100 µM and the TGI (UACC-257 melanoma) was over 100 µM. For the same compound, the TGI (LXFL 529 NSCLC) was over 100 µM, the TGI (SK-MEL-2 melanoma) was 67 µM and the TGI (RPMI-8226 leukemia) was 61.2 µM. For the same compound, the TGI (MALME-3M melanoma) was 74.4 µM, the TGI (HL-60(TB) leukemia) was 45.3 µM and the TGI (NCI-H23 lung) was over 100 µM. For the same compound, the TGI (KM20L2 colon) was over 100 µM, the TGI (MOLT-4 leukemia) was over 100 µM and the TGI (M14 melanoma) was 72.1 µM. The TGI (DMS 273 small cell lung) was 39.1 µM, the TGI (SNB-19 CNS) was over 100 µM and the TGI (HOP-62 NSCLC) was over 100 µM. For the same compound, the TGI (CAKI-1 renal) was over 100 µM, the TGI (K-562 leukemia) was 86 µM and the TGI (OVCAR-5 ovarian) was 64 µM. It also gave a TGI (ACHN renal) of 83.4 µM, a TGI (A549 NSCLC) of 96.1 µM and a TGI (SF-539 CNS) of over 100 µM. The TGI (OVCAR-8 ovarian) was over 100 µM, the TGI (EKVX NSCLC) was 86.9 µM and the TGI (DLD-1 colon) was over 100 µM. It also gave a TGI (OVCAR-3 ovarian) of 80.9 µM, a TGI (HT29 colon) of 65.8 µM and a TGI (HOP-18 NSCLC) of 93.6 µM. For the same compound, the TGI (COLO 205 colon) was 35.8 µM, the TGI (NCI-H522 lung) was 89.7 µM and the TGI (XF 498 CNS) was 40 µM. For the same compound, the TGI (U251 CNS) was 69.3 µM, the TGI (786-0 renal) was 35.3 µM and the TGI (SN12C renal) was 53.4 µM. The TGI (IGROV1 ovarian) was over 100 µM, the TGI (RXF 393 renal) was 72.1 µM and the TGI (CCRF-CEM leukemia) was 61 µM. It also gave a TGI (NCI-H460 lung) of over 100 µM, a TGI (HCT-116 colon) of over 100 µM and a TGI (TK-10 renal) of over 100 µM. For the same compound, the TGI (SK-OV-3 ovarian) was 64.1 µM and the TGI (HCC-2998 colon) was over 100 µM.
